Experimental data as given in the supplement of paper PMC5662764.
± gives the standard deviation of the averaged measurements.

Key:
Test in all cases: normalised growth rate inhibition (GR value) relative to DMSO control (GR (1 = untreated growth, 0 = cytostasis, <0 = cytotoxic)); higher = less growth inhibition
Conditions in all cases: 72 h
BT20 = test system: BT20
Experimental: (§1)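 Breast cancer cell lines (BT-20, Hs 578T, MCF 10A, MCF7, MDA-MB-231, SK-BR-3) were plated in 384-well plates and treated 24 h later with drugs at six concentrations (0.04-10 µM). Viable cells were counted by Hoechst/dead-cell-stain imaging at 0 and 72 h. Counts were normalised to DMSO controls on the same plate to give the relative cell count and the growth-rate inhibition (GR) value; technical plate triplicates were averaged for each biological replicate.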

MCF10A = test system: MCF10A
Experimental: as §1

HS578T = test system: HS578T
Experimental: as §1

SKBR3 = test system: SKBR3
Experimental: as §1

MDAMB231 = test system: MDAMB231
Experimental: as §1

MCF7 = test system: MCF7
Experimental: as §1

Row | SMILES | normalised growth rate inhibition (BT20; 0.04 µM) | normalised growth rate inhibition (BT20; 0.12 µM) | normalised growth rate inhibition (BT20; 0.37 µM) | normalised growth rate inhibition (BT20; 1.11 µM) | normalised growth rate inhibition (BT20; 3.33 µM) | normalised growth rate inhibition (BT20; 10 µM) | normalised growth rate inhibition (MCF10A; 0.04 µM) | normalised growth rate inhibition (MCF10A; 0.12 µM) | normalised growth rate inhibition (MCF10A; 0.37 µM) | normalised growth rate inhibition (MCF10A; 1.11 µM) | normalised growth rate inhibition (MCF10A; 3.33 µM) | normalised growth rate inhibition (MCF10A; 10 µM) | normalised growth rate inhibition (HS578T; 0.04 µM) | normalised growth rate inhibition (HS578T; 0.12 µM) | normalised growth rate inhibition (HS578T; 0.37 µM) | normalised growth rate inhibition (HS578T; 1.11 µM) | normalised growth rate inhibition (HS578T; 3.33 µM) | normalised growth rate inhibition (HS578T; 10 µM) | normalised growth rate inhibition (SKBR3; 0.04 µM) | normalised growth rate inhibition (SKBR3; 0.12 µM) | normalised growth rate inhibition (SKBR3; 0.37 µM) | normalised growth rate inhibition (SKBR3; 1.11 µM) | normalised growth rate inhibition (SKBR3; 3.33 µM) | normalised growth rate inhibition (SKBR3; 10 µM) | normalised growth rate inhibition (MDAMB231; 0.04 µM) | normalised growth rate inhibition (MDAMB231; 0.12 µM) | normalised growth rate inhibition (MDAMB231; 0.37 µM) | normalised growth rate inhibition (MDAMB231; 1.11 µM) | normalised growth rate inhibition (MDAMB231; 3.33 µM) | normalised growth rate inhibition (MDAMB231; 10 µM) | normalised growth rate inhibition (MCF7; 0.04 µM) | normalised growth rate inhibition (MCF7; 0.12 µM) | normalised growth rate inhibition (MCF7; 0.37 µM) | normalised growth rate inhibition (MCF7; 1.11 µM) | normalised growth rate inhibition (MCF7; 3.33 µM) | normalised growth rate inhibition (MCF7; 10 µM)
1 | COc1cc(N2CCC(C(N)=O)CC2)ccc1Nc1nc(N)c(Cl)c(Nc2ccccc2S(=O)(=O)C(C)C)n1 [HG-5-88-01] | 0.747 ± 0.087 | 0.921 ± 0.066 | 0.937 ± 0.039 | 0.887 ± 0.022 | 0.846 ± 0.048 | 0.404 ± 0.013 | 0.933 ± 0.075 | 0.879 ± 0.09 | 0.766 ± 0.14 | 0.709 ± 0.16 | 0.627 ± 0.2 | 0.452 ± 0.11 | 0.942 ± 0.016 | 0.933 ± 0.04 | 0.885 ± 0.015 | 0.8637 ± 0.0081 | 0.839 ± 0.022 | 0.664 ± 0.034 | 0.548 ± 0.13 | 0.691 ± 0.1 | 0.678 ± 0.073 | 0.699 ± 0.08 | 0.641 ± 0.17 | 0.133 ± 0.15 | 0.794 ± 0.12 | 0.861 ± 0.12 | 0.791 ± 0.11 | 0.796 ± 0.14 | 0.783 ± 0.17 | 0.451 ± 0.089 | 0.635 ± 0.082 | 0.602 ± 0.04 | 0.493 ± 0.081 | 0.364 ± 0.071 | 0.208 ± 0.11 | -0.0672 ± 0.054
2 | COc1cc(C(=O)NC2CCN(C)CC2)ccc1Nc1ncc2c(n1)N(C1CCCC1)CCC(=O)N2C(C)C | 0.783 ± 0.068 | 0.948 ± 0.1 | 0.933 ± 0.14 | 0.936 ± 0.11 | 0.888 ± 0.1 | 0.734 ± 0.15 | 0.975 ± 0.04 | 0.979 ± 0.045 | 0.984 ± 0.019 | 0.972 ± 0.024 | 0.948 ± 0.029 | 0.758 ± 0.086 | 0.972 ± 0.024 | 0.964 ± 0.045 | 0.93 ± 0.03 | 0.917 ± 0.0095 | 0.8447 ± 0.0079 | 0.275 ± 0.079 | 0.601 ± 0.093 | 0.755 ± 0.053 | 0.775 ± 0.079 | 0.758 ± 0.088 | 0.787 ± 0.082 | 0.511 ± 0.17 | 0.765 ± 0.047 | 0.884 ± 0.069 | 0.86 ± 0.068 | 0.834 ± 0.077 | 0.767 ± 0.093 | 0.308 ± 0.08 | 0.764 ± 0.077 | 0.84 ± 0.053 | 0.858 ± 0.07 | 0.807 ± 0.02 | 0.758 ± 0.065 | 0.298 ± 0.024
3 | C#Cc1cccc(Nc2ncnc3cc(OCCOC)c(OCCOC)cc23)c1 [erlotinib] | 0.861 ± 0.025 | 0.879 ± 0.049 | 0.902 ± 0.068 | 0.834 ± 0.032 | 0.856 ± 0.049 | 0.547 ± 0.057 | 0.973 ± 0.013 | 0.829 ± 0.14 | 0.432 ± 0.17 | 0.107 ± 0.053 | 0.132 ± 0.065 | 0.136 ± 0.036 | 0.973 ± 0.015 | 0.965 ± 0.023 | 0.957 ± 0.012 | 0.945 ± 0.019 | 0.918 ± 0.016 | 0.586 ± 0.073 | 0.756 ± 0.077 | 0.885 ± 0.06 | 0.946 ± 0.085 | 0.911 ± 0.072 | 0.868 ± 0.08 | 0.165 ± 0.12 | 0.9 ± 0.058 | 0.937 ± 0.032 | 0.953 ± 0.035 | 0.962 ± 0.036 | 0.969 ± 0.016 | 0.641 ± 0.069 | 0.858 ± 0.069 | 0.899 ± 0.074 | 1.02 ± 0.024 | 1.06 ± 0.047 | 1.04 ± 0.04 | 0.927 ± 0.074
4 | COc1cc2ncnc(Nc3ccc(F)c(Cl)c3)c2cc1OCCCN1CCOCC1 [gefitinib] | 1.04 ± 0.075 | 0.968 ± 0.11 | 0.94 ± 0.051 | 0.909 ± 0.075 | 0.878 ± 0.05 | 0.762 ± 0.11 | 0.887 ± 0.052 | 0.59 ± 0.11 | 0.265 ± 0.088 | 0.122 ± 0.01 | 0.121 ± 0.024 | 0.105 ± 0.022 | 0.999 ± 0.0098 | 0.9844 ± 0.0036 | 0.984 ± 0.015 | 0.986 ± 0.014 | 0.987 ± 0.0035 | 0.849 ± 0.015 | 0.909 ± 0.055 | 0.74 ± 0.063 | 0.567 ± 0.076 | 0.418 ± 0.099 | 0.342 ± 0.12 | 0.048 ± 0.14 | 1.07 ± 0.063 | 1.03 ± 0.068 | 1.019 ± 0.0099 | 1.02 ± 0.038 | 1.01 ± 0.069 | 0.897 ± 0.021 | 1.09 ± 0.064 | 1.06 ± 0.069 | 1.05 ± 0.083 | 1.04 ± 0.092 | 1.03 ± 0.069 | 0.808 ± 0.04
5 | C[C@@H](Oc1cc(-c2cnn(C3CCNCC3)c2)cnc1N)c1c(Cl)ccc(F)c1Cl [crizotinib] | 0.805 ± 0.04 | 0.91 ± 0.024 | 0.823 ± 0.015 | 0.742 ± 0.03 | 0.391 ± 0.17 | -0.0468 ± 0.072 | 0.988 ± 0.021 | 0.964 ± 0.032 | 0.934 ± 0.022 | 0.906 ± 0.015 | 0.833 ± 0.028 | 0.094 ± 0.017 | 0.976 ± 0.034 | 0.965 ± 0.042 | 0.903 ± 0.014 | 0.781 ± 0.12 | 0.367 ± 0.2 | 0.0436 ± 0.099 | 0.687 ± 0.14 | 0.808 ± 0.096 | 0.753 ± 0.15 | 0.629 ± 0.15 | 0.342 ± 0.14 | -0.181 ± 0.092 | 0.831 ± 0.13 | 0.885 ± 0.079 | 0.778 ± 0.096 | 0.509 ± 0.2 | 0.175 ± 0.12 | -0.0131 ± 0.13 | 0.762 ± 0.07 | 0.748 ± 0.078 | 0.618 ± 0.12 | 0.351 ± 0.17 | 0.0468 ± 0.047 | -0.174 ± 0.065
6 | CNC(=O)Nc1ccc(-c2nc(N3CC4CCC(C3)O4)c3cnn(C4CCC5(CC4)OCCO5)c3n2)cc1 | 0.473 ± 0.17 | 0.269 ± 0.11 | 0.208 ± 0.084 | 0.15 ± 0.064 | 0.113 ± 0.075 | 0.0435 ± 0.086 | 0.506 ± 0.15 | 0.284 ± 0.064 | 0.224 ± 0.057 | 0.176 ± 0.017 | 0.151 ± 0.042 | 0.14 ± 0.026 | 0.268 ± 0.079 | 0.212 ± 0.066 | 0.198 ± 0.091 | 0.172 ± 0.096 | 0.177 ± 0.093 | 0.101 ± 0.15 | 0.0703 ± 0.093 | 0.000862 ± 0.13 | -0.00643 ± 0.17 | -0.00784 ± 0.15 | -0.0626 ± 0.15 | -0.0635 ± 0.14 | 0.499 ± 0.16 | 0.369 ± 0.18 | 0.301 ± 0.15 | 0.285 ± 0.12 | 0.23 ± 0.12 | 0.0984 ± 0.14 | 0.16 ± 0.091 | 0.14 ± 0.1 | 0.13 ± 0.069 | 0.149 ± 0.1 | 0.0933 ± 0.1 | -0.00137 ± 0.14
